The values below come from patent US8470889B2 (TRT Pharma Inc., priority 2008, dated 2013).

The subject of data set [1] is LNCaP cells.
Experimental: (§1) MDA PCa 2b was seeded at the same density in medium BRFF-HPC1 (Athena Enzyme Systems, Baltimore, Md., USA) supplemented with 20% FBS. After overnight incubation, the medium was changed to a fresh medium containing different concentrations of test compounds diluted from stock DMSO solution. The final concentration of DMSO is 0.5%. After 72 h of incubation with test compounds, 20 μL of 3-(4,5-dimethyl thiazol-2-yl)-2,5-diphenyltetrazolium bromide (MTT) solution (5 mg/mL in PBS) were added to each well and incubated further for 2 h. Next, the supernatant was aspirated and the MTT formazan formed by metabolically viable cells was dissolved in 100 μL of isopropanol. The plates were mixed for 30 min, and the absorbance was measured at 600 nm on a plate reader (FLUOstar OPTIMA, BMG LabTech). All samples were in triplicate. The IC50 values were determined from dose-response curves by nonlinear regression using PRISM v5.00 (GraphPad Software Inc, La Jolla, Calif., USA).
(§2) The in vitro cytotoxicity of 1-20 were evaluated by MTT assays in a panel of prostate cancer cell lines, including LNCaP, MDA PCa 2b, 22Rv1, C4-2B and PC-3.
Data set [2] has as its system PC-3 cells.
Experimental: as §1, §2
Data set [3] deals with LNCaP cells. The data set is described as follows: MTT cell growth inhibition, LNCaP.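 Further: MTT formazan absorbance at 600 nm read after 72 h of compound exposure, IC50 fitted by nonlinear regression of dose-response curves, samples run in triplicate.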
Experimental: as §1, §2
Data set [4] concerns PC-3 cells. The data set is described as follows: MTT cell growth inhibition, PC-3.
Experimental: as §1, §2
The test system of data set [5] is 22Rv1 cells. The data set is described as follows: MTT cell growth inhibition, 22Rv1. To be noted: MTT.
Data set [6] concerns C4-2B cells. The data set is described as follows: MTT cell growth inhibition, C4-2B.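 Further: cells treated with a dilution series for 72 h, then MTT added and absorbance read at 600 nm, IC50 fitted from dose-response curves by nonlinear regression.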
[7] abbreviates: read-out: Cellular IC50 (μM) LNCaP, Table 8.
Setting [8] is: read-out: Cellular IC50 (μM) PC3, Table 8.
Setting [9] is: read-out: Cellular IC50 (μM) 22Rv1, Table 8.
[10] abbreviates: read-out: Cellular IC50 (μM) C4-2B, Table 8.
The mark [11] stands for this setting: read-out: Cellular IC50 (μM) LNCaP, Table 9.
Where [12] appears, read: read-out: Cellular IC50 (μM) PC-3, Table 9.
The mark [13] stands for this setting: read-out: Cellular IC50 (μM) 22Rv1, Table 9.
Where [14] appears, read: read-out: Cellular IC50 (μM) C4-2B, Table 9.
Setting [15] is: read-out: Cellular IC50 (μM) LNCaP, Table 2, 72 h.
The mark [16] stands for this setting: read-out: Cellular IC50 (μM) PC-3, Table 2, 72 h, max tested 50 μM (β-ionone 150 μM).
The mark [17] stands for this setting: read-out: Cellular IC50 (μM) 22Rv1, Table 2, 72 h.
The mark [18] stands for this setting: read-out: Cellular IC50 (μM) C4-2B, Table 2, 72 h.

Each structure is given as a SMILES string. Like-named read-outs stand apart in the source and are kept apart here.

As for `CC1=C(/C=C/C(=O)/C=C/c2ccc(O)c([N+](=O)[O-])c2)C(C)(C)CCC1` [Compound B12], the results for the IC50 in data set [1] and in data set [2] were 26.8 µM and over 50 µM, respectively.
Consider `CC1=C(/C=C/C(=O)/C=C/c2cccc(C)c2)C(C)(C)CCC1` [Compound B14], for which the IC50 came to 17.8 µM in data set [1] and 35 µM in data set [2].
In the same order, the values of `CC1=C(/C=C/C(=O)/C=C/c2ccc(-c3ccccc3)cc2)C(C)(C)CCC1` [Compound B15] are 14.8 µM and 47.8 µM.
With `CC1=C(/C=C/C(=O)/C=C/c2ccc(C(F)(F)F)cc2)C(C)(C)CCC1` [Compound B6], the IC50 in data set [1] was determined as 9.1 µM; in data set [2], 12 µM.
`COc1cc(/C=C/C(=O)/C=C/C2=C(C)C(O)CCC2(C)C)cc(OC)c1OC` (stereo not shown) [Compound B72]: the IC50 was 1.8 µM in data set [3] (setting [7]), 4.9 µM in data set [4] (setting [8]), 3 µM in data set [5] (setting [9]) and 1.7 µM in data set [6] (setting [10]).
Consider `COc1ccc(/C=C/C(=O)/C=C/C2=C(C)C(O)CCC2(C)C)cc1O` (stereo not shown) [Compound B69], for which the IC50 in data set [3] (setting [7]) worked out at 12.3 µM; in data set [4] (setting [8]) it was 53.9 µM; in data set [5] (setting [9]), 19.1 µM; in data set [6] (setting [10]), 12 µM.
For `CC1=C(/C=C/C(=O)/C=C/c2ccc(-c3cncnc3)cc2)C(C)(C)CCC1O` (stereo not shown) [Compound B58], in that order: 1.5 µM, 4.3 µM, 3.8 µM and 2.1 µM.
In the same order, the values of `CC1=C(/C=C/C(=O)/C=C/c2ccc(Oc3ccccc3)cc2)C(C)(C)CCC1O` (stereo not shown) [Compound B56] are 10.4 µM, 11.5 µM, 10.4 µM and 7.5 µM.
With `COc1cccc(/C=C/C(=O)/C=C/C2=C(C)C(O)CCC2(C)C)c1` (racemic) [Compound B42], the IC50 in data set [1] was found to be 4.9 µM; in data set [2], 6.5 µM.
As for `CC1(C)CCC(O)C=C1/C=C/C(=O)/C=C/c1cc2ccccc2s1` (stereo not shown) [Compound B93], the IC50 in data set [3] (setting [11]) came to 12.9 µM; in data set [4] (setting [12]), 23.8 µM; in data set [5] (setting [13]) it was 17.6 µM; in data set [6] (setting [14]) it was 9.9 µM.
For `CC1(C)CCC(O)C=C1/C=C/C(=O)/C=C/c1ccc2c(c1)CCO2` (stereo not shown) [Compound B79], in that order: 4.7 µM, 14.8 µM, 10.4 µM and 5.6 µM.
As to `COc1ccc(/C=C/C(=O)/C=C/C2=C(C)CCCC2(C)C)cc1O` [Compound B2], the IC50 worked out at 9.9 µM in data set [1] and 37.4 µM in data set [2].
Consider `COc1ccc(C=CC(=O)C(=Cc2ccc(OC)c(O)c2)C(=O)C=CC2=C(C)CCCC2(C)C)cc1O` [Compound 11], for which the IC50 in data set [3] (setting [15]) is 7.3 µM; in data set [4] (setting [16]), 29.2 µM; in data set [5] (setting [17]), 5.2 µM; in data set [6] (setting [18]), 4.5 µM.
With `COc1ccccc1/C=C/C(=O)/C=C/C1=C(C)C(O)CCC1(C)C` (stereo not shown) [Compound B65], the IC50 in data set [3] (setting [7]) was found to be 1.9 µM; in data set [4] (setting [8]) it was 7.1 µM; in data set [5] (setting [9]), 4.6 µM; in data set [6] (setting [10]) it was 2.6 µM.
Turning to `Cc1cccc2c(/C=C/C(=O)/C=C/C3=CC(O)CCC3(C)C)c[nH]c12` (stereo not shown) [Compound B86], the IC50 in data set [3] (setting [11]) was 2.6 µM; in data set [4] (setting [12]), 6.4 µM; in data set [5] (setting [13]), 5.3 µM; in data set [6] (setting [14]) it was 3.6 µM.
`CCOC(OCC)c1cccc(/C=C/C(=O)/C=C/C2=C(C)C(O)CCC2(C)C)c1` (stereo not shown) [Compound B43]: the values for the IC50 in data set [1] and in data set [2] were 1.8 µM and 4.7 µM, respectively.
As for `CC1=C(/C=C/C(=O)/C=C/c2ccc(C)cc2)C(C)(C)CCC1O` (stereo not shown) [Compound B51], the IC50 in data set [3] (setting [7]) is 11.5 µM; in data set [4] (setting [8]) it was 18.6 µM; in data set [5] (setting [9]), 12.3 µM; in data set [6] (setting [10]), 5.9 µM.
As to `Cc1ccc2[nH]cc(/C=C/C(=O)/C=C/C3=CC(O)CCC3(C)C)c2c1` (stereo not shown) [Compound B82], the IC50 amounted to 3.8 µM in data set [3] (setting [11]), 10.6 µM in data set [4] (setting [12]), 7.3 µM in data set [5] (setting [13]) and 6.8 µM in data set [6] (setting [14]).
With `CC1=C(/C=C/C(=O)/C=C/c2cccc(F)c2)C(C)(C)CCC1` [Compound B9], the IC50 turned out to be 12.9 µM in data set [3] (read-out: IC50 in LNCaP cells) and 18.7 µM in data set [2].
Regarding `CC1=C(/C=C/C(=O)/C=C/c2ccc(F)cc2F)C(C)(C)CCC1O` (stereo not shown) [Compound B67], the IC50 in data set [3] (setting [7]) came out at 4.3 µM; in data set [4] (setting [8]) it was 7.5 µM; in data set [5] (setting [9]), 4.8 µM; in data set [6] (setting [10]), 2.1 µM.
`CC1(C)CCC(O)C=C1/C=C/C(=O)/C=C/c1c[nH]c2ccc(Br)cc12` (stereo not shown) [Compound B85]: the IC50 in data set [3] (setting [11]) was found to be 2.2 µM; in data set [4] (setting [12]) it was 5.8 µM; in data set [5] (setting [13]), 4 µM; in data set [6] (setting [14]), 4.8 µM.
In the case of `COc1ccc(C=CC(=O)C(=Cc2ccc(OC)c(OC)c2)C(=O)C=CC2=C(C)CCCC2(C)C)cc1OC` [Compound 12], the IC50 was found to be 15.9 µM in data set [3] (setting [15]), 34.3 µM in data set [4] (setting [16]), 49.7 µM in data set [5] (setting [17]) and 54.4 µM in data set [6] (setting [18]).
Consider `CC1=C(/C=C/C(=O)/C=C/c2ccc(N3CCCCC3)cc2)C(C)(C)CCC1O` (stereo not shown) [Compound B59], for which the IC50 was determined as 17.8 µM in data set [3] (setting [7]), 22.5 µM in data set [4] (setting [8]), 31.2 µM in data set [5] (setting [9]) and 19.7 µM in data set [6] (setting [10]).
Consider `CC1=C(/C=C/C(=O)/C=C/c2ccc(F)cc2)C(C)(C)CCC1` [Compound B10], for which the values for the IC50 in data set [1] and in data set [2] were 7.3 µM and 25.8 µM, respectively.
`CC1=C(/C=C/C(=O)/C=C/c2cc(F)ccc2F)C(C)(C)CCC1O` (stereo not shown) [Compound B66]: the IC50 in data set [3] (setting [7]) is 3.5 µM; in data set [4] (setting [8]), 7.2 µM; in data set [5] (setting [9]), 4.5 µM; in data set [6] (setting [10]) it was 6.9 µM.
Consider `CC1(C)CCC(O)C=C1/C=C/C(=O)/C=C/c1ccc2c(c1)OCO2` (stereo not shown) [Compound B76], for which the IC50 in data set [3] (setting [11]) is 11.2 µM; in data set [4] (setting [12]), 25.8 µM; in data set [5] (setting [13]), 20.1 µM; in data set [6] (setting [14]), 6.2 µM.
In the same order, the values of `CC1(C)CCC(O)C=C1/C=C/C(=O)/C=C/c1cccc2cc[nH]c12` (stereo not shown) [Compound B90] are 1.4 µM, 2.1 µM, 2.1 µM and 1.7 µM.
Take `CC1=C(/C=C/C(=O)/C=C/c2cccc(OCc3ccccc3)c2)C(C)(C)CCC1O` (stereo not shown) [Compound B49]: the IC50 in data set [3] (setting [7]) is 5 µM; in data set [4] (setting [8]) it was 8 µM; in data set [5] (setting [9]) it was 5.4 µM; in data set [6] (setting [10]), 2.6 µM.
`CC1=C(/C=C/C(=O)/C=C/c2cccc(C(F)(F)F)c2)C(C)(C)CCC1` [Compound B5]: the IC50 in data set [3] (read-out: IC50 in LNCaP cells) was 2.8 µM; in data set [2] it was 7.7 µM.
Consider `CC1=C(/C=C/C(=O)/C=C/c2ccc(-c3ccccc3)cc2)C(C)(C)CCC1O` (stereo not shown) [Compound B57], for which the IC50 in data set [3] (setting [7]) turned out to be 2.9 µM; in data set [4] (setting [8]) it was 11.9 µM; in data set [5] (setting [9]), 5.2 µM; in data set [6] (setting [10]) it was 6 µM.
In the same order, the values of `COc1cc(OC)c(/C=C/C(=O)/C=C/C2=C(C)C(O)CCC2(C)C)c(OC)c1` (stereo not shown) [Compound B74] are 15.5 µM, over 25 µM, 21 µM and 11.6 µM.
In the case of `COc1cc(/C=C/C(=O)/C(=C/c2ccc3ccccc3n2)C(=O)/C=C/C2=C(C)CCCC2(C)C)ccc1O` [Compound 20], the IC50 in data set [3] (setting [15]) was 8.5 µM; in data set [4] (setting [16]), 15.2 µM; in data set [5] (setting [17]), 5.1 µM; in data set [6] (setting [18]) it was 5.3 µM.
With `Cn1cc(/C=C/C(=O)/C=C/C2=CC(O)CCC2(C)C)c2ccccc21` (stereo not shown) [Compound B88], the IC50 in data set [3] (setting [11]) came out at 9.4 µM; in data set [4] (setting [12]) it was 54.9 µM; in data set [5] (setting [13]), 21 µM; in data set [6] (setting [14]), 11.8 µM.
For the compound `CC1(C)CCC(O)C=C1/C=C/C(=O)/C=C/c1c[nH]c2ccccc12` (stereo not shown) [Compound B81], the IC50 was found to be 4.6 µM in data set [3] (setting [11]), 15.2 µM in data set [4] (setting [12]), 9.1 µM in data set [5] (setting [13]) and 2.3 µM in data set [6] (setting [14]).
`COc1cc(OC)c(OC)cc1/C=C/C(=O)/C=C/C1=C(C)C(O)CCC1(C)C` (stereo not shown) [Compound B73]: the IC50 in data set [3] (setting [7]) worked out at 3.7 µM; in data set [4] (setting [8]), 9.5 µM; in data set [5] (setting [9]), 5.4 µM; in data set [6] (setting [10]), 3.2 µM.
With `CCOC(OCC)c1ccc(/C=C/C(=O)/C=C/C2=C(C)C(O)CCC2(C)C)cc1` (stereo not shown) [Compound B61], the IC50 in data set [3] (setting [7]) was found to be 1.8 µM; in data set [4] (setting [8]), 3.7 µM; in data set [5] (setting [9]), 2.1 µM; in data set [6] (setting [10]), 1.7 µM.
For `CC1=C(/C=C/C(=O)/C=C/c2ccc(OC(F)(F)C(F)F)cc2)C(C)(C)CCC1O` (stereo not shown) [Compound B55], in that order: 5.4 µM, 12.3 µM, 7.7 µM and 4.6 µM.
Turning to `COc1cc(/C=C/C(O)=C/C(=O)/C=C/C2=C(C)CCCC2(C)C)cc(OC)c1O` [Compound 6], the IC50 in data set [3] (read-out: IC50 (μM) LNCaP, Table 1, 72 h) was found to be 6.2 µM; in data set [4] (read-out: IC50 (μM) PC-3, Table 1, 72 h, maximum tested concentration 50 μM), 26.7 µM; in data set [5] (read-out: IC50 (μM) 22Rv1, Table 1, 72 h), 12.2 µM; in data set [6] (read-out: IC50 (μM) C4-2B, Table 1, 72 h), 9.8 µM.
As to `CC1(C)CCC(O)C=C1/C=C/C(=O)/C=C/c1ccc2c(c1)OCCO2` (stereo not shown) [Compound B78], the IC50 in data set [3] (setting [11]) was found to be 10.8 µM; in data set [4] (setting [12]) it was 23.2 µM; in data set [5] (setting [13]), 19.3 µM; in data set [6] (setting [14]), 10.3 µM.
